Laboratory results published in article PMC9820303, “^αN-Acetyl β-Endorphin Is an Endogenous Ligand of σ1Rs That Regulates Mu-Opioid Receptor Signaling by Exchanging G Proteins for σ2Rs in σ1R Oligomers” (International Journal of Molecular Sciences, 2022).

Tested on: CD1 mice (wild-type and σ1R−/−)
Assay: Supraspinal analgesia, warm water (52 °C) tail-flick test
Assay type: in vivo, mouse
Settings: for effect of exogenous σ1R ligands on β-End 1–31 analgesia: 3 nmol icv 20 min before 0.5 nmol β-End 1–31 icv; for effect on β-End 1–31 analgesia, nonphysiological fragments: 1 nmol icv 20 min before 0.5 nmol β-End 1–31 icv, 6 mice; for effect on DAMGO analgesia: icv 20 min before DAMGO (0.1 nmol icv), evaluated 15 min after DAMGO; for effect on analgesia of the DOR agonists DPDPE and D-Ala^2 Deltorphin II: icv 20 min before DPDPE (10 nmol) or D-Ala2-deltorphin II (10 nmol) icv; for effect of C-terminal peptides on β-End 1–31 and morphine analgesia: icv 20 min before 0.5 nmol β-End 1–31 or 10 nmol morphine icv
Procedure: Upper panel: the withdrawal thresholds of the contralateral and ipsilateral paws were measured before (indicated as 0) and up to 14 days after surgery. […] Middle panel: 0.3 and 3 nmol of ^αN-acetyl β-End 1–31 were administered icv 7 days after surgery, and the nociceptive threshold was evaluated at the indicated postinjection intervals (in minutes). For every time interval studied in min or days, * indicates a significant difference from the group that received saline instead of ^αN-acetyl β-End 1–31; ϕ significant difference from the effect of 3 nmol ^αN-acetyl β-End 1–31. […] All data are presented as the mean ± SD of six mice. ANOVA followed by the Holm–Sidak multiple comparisons test, p < 0.05, 1-β > 0.80. […] Upper panel: wild-type mice were injected icv with saline, ^αN-acetyl β-End 1–31 (1 nmol/mouse) or the combination of the σ1R agonist PPCC (3 nmol/mouse) plus ^αN-acetyl β-End 1–31 20 min before morphine and β-End 1–31. Analgesia was evaluated by the warm water (52 °C) tail-flick test at the interval postinjection corresponding to their peak effect, 30 min. Lower panel: σ1R^−/− mice received 1 nmol ^αN-acetyl β-End 1–31, 20 min before morphine and β-End 1–31 and analgesia was evaluated as described above. Eight mice were used per strain and treatment. * Significant difference with respect to the group treated with morphine or β-End 1–31 alone. ANOVA followed by the Holm–Sidak multiple comparisons test, p < 0.05, 1-β > 0.80.
Figure 3 Effect of physiological β-End 1–31 derivatives on morphine and β-End 1–31 analgesia. […] (A) The mice were icv-injected with 25 nmol of β-End 1–26, β-End 1–27 and ^αN-acetylated derivatives 20 min before icv 0.5 nmol β-End 1–31. Analgesia was determined at the indicated postinjection intervals. (B) CD1 wild-type and σ1R^−/− mice were administered C terminal peptide sequences 27–31, 28–31 and 30–31 of β-End 1–31 through an icv injection 20 min before 0.5 nmol of the whole β-End 1–31 and morphine (10 nmols) were injected icv. […] (C) A series of exogenous σ1R ligands (3 nmol) were icv-injected 20 min before 0.5 nmol β-End 1–31 was administered via icv in wild-type mice. The σ1R antagonist S1RA was also icv-injected before β-End 1–31 was administered icv in σ1R^−/− mice. (D) The effects of several doses of S1RA on morphine analgesia were studied in wild-type and σ1R^−/− mice. […] ANOVA followed by the Holm–Sidak multiple comparisons test, p < 0.05, 1-β > 0.80.
(A) The effect of σ1R deletion on opioid- and cannabinoid-induced analgesia. Analgesic compounds were icv-injected into wild-type and σ1R^−/− mice, and analgesia was evaluated 30 min after morphine (3 nmol) and β-End 1–31 (0.5 nmol), 15 min after DAMGO (0.1 nmol) and DPDPE (10 nmol) and 10 min after WIN55,212-2 (15 nmol). The bars are the mean ± SD of eight mice per strain and treatment. * Significant difference with respect to the effect of the analgesic substance in the wild-type group. ANOVA followed by the Holm–Sidak multiple comparisons test, p < 0.05, 1-β > 0.80. (B) Coprecipitation of G proteins with MORs. Solubilized mouse brain cortical membranes enriched in synaptosomes (SBM) from CD1 wild-type (WT) and σ1R^−/− mice were solubilized with sonication in the presence of 1% NP-40. Non-soluble debris was eliminated, and the samples were then incubated overnight at 4 °C with affinity-purified biotinylated IgGs that were raised against extracellular regions of the MOR. Protein complexes that were immunoprecipitated with streptavidin agarose were extensively washed and then resolved by SDS-PAGE.

For Br.Br.CN(C)CCN(C)CCc1ccc(Cl)c(Cl)c1 [BD1047, N′-[2-(3,4-dichlorophenyl)ethyl]-N,N,N′-trimethylethane-1,2-diamine;dihydrobromide, reference compound], which “effect of exogenous σ1R ligands on β-End 1–31 analgesia” value (from here on “effect of exogenous σ1R ligands”) (wild-type mice) is on record?
Its value is “diminished”.

With “β-End 22–31: nonphysiological C-terminal sequence of β-End 1–31 (IIKNAYKKGE; Beta-endorphin; UniProt P01189 258-267, looked up, fragment)” as the molecule, how does the “effect on β-End 1–31 analgesia, nonphysiological fragments” value read?
The value was “reduced β-End 1–31 analgesia”.

COC(=O)[C@]1(c2ccc(C)cc2)C[C@@H]1CN1CCC(O)(c2ccccc2)CC1 [PPCC, (1R,2S/1S,2R)-2-[4-hydroxy-4-phenylpiperidin-1-yl)methyl]-1-(4-methylphenyl) cyclopropanecarboxylate, reference compound] was tested. Which “effect of exogenous σ1R ligands” value (wild-type mice) did it give?
Its value is “did not alter the effect of β-End 1–31”.

And the “effect on the antagonist activity of β-End C-terminal peptides” value (PPCC 3 nmol icv 10 min before the β-End C-terminal peptides)?
The value was “prevented”.

What about the “effect on the impairment of morphine and β-End 1–31 analgesia by ^αN-acetyl β-End 1–31” value (PPCC 3 nmol/mouse icv plus ^αN-acetyl β-End 1–31, wild-type mice) of the same molecule?
The value was “prevented the impairing effects”.

For “^αN-acetyl β-End 1–31: β-End 1–31 acetylated at N terminal Y1, α position”, which “effect on morphine and β-End 1–31 analgesic potency, 1 pmol” value (1 pmol icv 30 min before morphine and β-End 1–31, wild-type mice) is on record?
Its value is “significant reductions in their analgesic potency”.

What about the “effect on DAMGO analgesia” value of the same molecule?
The value was “enhanced DAMGO analgesia”.

And the “effect on analgesia of the DOR agonists DPDPE and D-Ala^2 Deltorphin II” value?
The value was “neither ^αN-acetyl β-End 1–31 nor S1RA altered the analgesic effects”.

What about the “icv dose at which the regulatory effects on analgesia reached a maximum” value (icv, persisted at 1 pmol or 1 nmol) of the same molecule?
The value was 1 to 10 fmols.

What about the “effect on DAMGO and clonidine analgesia” value (increasing icv doses 20 min before DAMGO (0.1 nmol) or clonidine (150 nmol) icv, wild-type mice) of the same molecule?
The value was “increased”.

What about the “effect on morphine and β-End 1–31 analgesia in σ1R−/− mice” value (σ1R−/− mice, icv before the opioids) of the same molecule?
Its value is “not altered”.

How did the “effect of exogenous σ1R ligands” value (wild-type mice) turn out when Cl.O=C(OCCN1CCOCC1)C1(c2ccccc2)CCCCC1 [PRE084, 2-(4-morpholinethyl)-1-phenylcyclohexanecarboxylate hydrochloride, reference compound] was run?
The value was “did not alter the effect of β-End 1–31”.

Which “effect of C-terminal peptides on β-End 1–31 and morphine analgesia” value (wild-type mice) does the source give for “YKKGE [β-End 27–31, C-terminal pentapeptide of β-End 1–31]” here?
The value was “reduced the analgesic activity of β-End 1–31 and morphine”.

What does the source list for Cc1cc(OCCN2CCOCC2)nn1-c1ccc2ccccc2c1 [S1RA]?
effect of exogenous σ1R ligands on β-End 1–31 analgesia (wild-type mice): diminished; effect on morphine analgesia, 3 nmol (3 nmol icv, wild-type mice): produced the maximum increase; effect on morphine analgesia, 10 nmol (10 nmol icv, wild-type mice): barely altered morphine effects; effect on DAMGO analgesia: enhanced DAMGO analgesia; effect on analgesia of the DOR agonists DPDPE and D-Ala^2 Deltorphin II: neither ^αN-acetyl β-End 1–31 nor S1RA altered the analgesic effects; effect on morphine analgesia (icv before morphine, wild-type mice): enhanced morphine analgesia

Which “effect of C-terminal peptides on β-End 1–31 and morphine analgesia” value (wild-type mice) does the source give for “KKGE [β-End 28–31, C-terminal tetrapeptide of β-End 1–31]” here?
Its value is “reduced the analgesic activity of β-End 1–31 and morphine”.

With “β-End 6–31: β-End 1–31 lacking the N-terminal met-enkephalin 1–5 sequence (TSEKSQTPLVTLFKNAIIKNAYKKGE; Beta-endorphin; UniProt P01189 242-267, looked up, fragment)” as the molecule, how does the “effect on β-End 1–31 analgesia, nonphysiological fragments” value read?
The value was “not produced”.
